Measured values reported in ChEMBL document CHEMBL2029279, “Structure-activity relationships and molecular modeling of the N-(3-pivaloyloxy-2-benzylpropyl)-N'-[4-(methylsulfonylamino)benzyl] thiourea template for TRPV1 antagonism” (Bioorg Med Chem Lett, 2012).
Activity calls are given as the source filed them. The calls are words filed in the database; no cut-off is given here.

Experiments:
[1] = molecular target: Transient receptor potential cation channel subfamily V member 1 (Rattus norvegicus) (UniProt O35433); experiment: Agonist activity at rat TRPV1 expressed in CHO cells assessed as induction of 45Ca2+ uptake at 30 uM relative to capsaicin; type: functional, cell-based
Transient receptor potential cation channel subfamily V member 1 (Rattus norvegicus), sequence (O35433 whole entry): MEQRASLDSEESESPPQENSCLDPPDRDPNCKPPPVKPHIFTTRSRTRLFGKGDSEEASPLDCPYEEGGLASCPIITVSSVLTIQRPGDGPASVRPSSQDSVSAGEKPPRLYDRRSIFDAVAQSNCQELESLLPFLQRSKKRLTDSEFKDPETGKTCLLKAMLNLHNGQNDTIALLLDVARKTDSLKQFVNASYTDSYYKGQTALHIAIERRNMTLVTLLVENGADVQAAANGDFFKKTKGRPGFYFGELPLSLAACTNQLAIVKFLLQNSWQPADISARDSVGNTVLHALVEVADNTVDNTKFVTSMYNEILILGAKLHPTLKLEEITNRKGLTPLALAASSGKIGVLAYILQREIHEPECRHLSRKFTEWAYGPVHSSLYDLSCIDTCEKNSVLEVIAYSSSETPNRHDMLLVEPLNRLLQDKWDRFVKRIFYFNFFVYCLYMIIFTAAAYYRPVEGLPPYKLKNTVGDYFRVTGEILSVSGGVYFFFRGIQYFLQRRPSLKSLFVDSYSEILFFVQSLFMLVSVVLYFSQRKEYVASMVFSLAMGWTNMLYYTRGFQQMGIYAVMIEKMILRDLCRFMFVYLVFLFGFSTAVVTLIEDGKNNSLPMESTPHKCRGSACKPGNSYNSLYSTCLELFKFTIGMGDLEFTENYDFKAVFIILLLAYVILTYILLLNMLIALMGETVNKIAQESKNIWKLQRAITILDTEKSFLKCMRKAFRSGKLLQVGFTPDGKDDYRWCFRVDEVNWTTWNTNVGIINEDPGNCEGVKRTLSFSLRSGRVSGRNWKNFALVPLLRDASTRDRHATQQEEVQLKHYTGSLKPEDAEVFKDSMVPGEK

[2] = molecular target: T1, Transient receptor potential cation channel subfamily V member 1 (Rattus norvegicus, UniProt O35433); experiment: Antagonist activity at rat TRPV1 expressed in CHO cells assessed as inhibition of 45Ca2+ uptake; type: functional, cell-based
T1 sequence (O35433 whole entry): as above

[3] = molecular target: T1, Transient receptor potential cation channel subfamily V member 1; experiment: Displacement of [3H]RTX from rat TRPV1 expressed in CHO cells; type: cell-based
[4] = molecular target: Transient receptor potential cation channel subfamily V member 1 (Rattus norvegicus) (UniProt O35433); experiment: Antagonist activity at rat TRPV1 expressed in CHO cells assessed as inhibition of 45Ca2+ uptake relative to control; type: functional, cell-based; set-up: scale not given: the % may be the effect or the level left

Row | Structure (SMILES) | Activity [1] | Ki [2] [nM] | Ki [3] [nM] | Activity [4] [%]
1 | Cc1ccc(CCC(COC(=O)C(C)(C)C)NC(=S)NCc2ccc(NS(C)(=O)=O)c(F)c2)cc1C (stereo unspecified) | inactive | 111 | 120 | 
2 | CC(C)(C)C(=O)OCC(CNC(=S)NCc1ccc(NS(C)(=O)=O)c(F)c1)c1ccc(C(C)(C)C)cc1 (stereo unspecified) | inactive | 116 | 69 | 
3 | Cc1ccc(CC(COC(=O)C(C)(C)C)NC(=S)NCc2ccc(NS(C)(=O)=O)cc2)cc1C (stereo unspecified) | 19% |  | 580 | 48
4 | CC(C)(C)C(=O)OCC(CCc1ccc(C(C)(C)C)cc1)NC(=S)NCc1ccc(NS(C)(=O)=O)cc1 (stereo unspecified) | inactive | 286 | 366 | 
5 | Cc1ccc(CC(COC(=O)C(C)(C)C)NC(=S)NCc2ccc(NS(C)(=O)=O)c(F)c2)cc1C (stereo unspecified) | inactive | 650 | 233 | 
6 | CC(C)(C)C(=O)OCC(CNC(=S)NCc1ccc(NS(C)(=O)=O)cc1)c1ccc(C(C)(C)C)cc1 (stereo unspecified) | inactive | 91 | 143 | 
7 | CC(C)(C)C(=O)OCC(C/N=C(\S)NCc1ccc(NS(C)(=O)=O)cc1)Cc1ccc(C(C)(C)C)cc1 (stereo unspecified) | 40% |  |  | 
8 | CC(C)(C)C(=O)OCC(CCc1ccc(C(C)(C)C)cc1)NC(=S)NCc1ccc(NS(C)(=O)=O)c(F)c1 (stereo unspecified) | inactive | 152 | 190 | 
9 | Cc1ccc(CC(CNC(=S)NCc2ccc(NS(C)(=O)=O)c(F)c2)COC(=O)C(C)(C)C)cc1C (stereo unspecified) | inactive |  |  | 
10 | CC(C)(C)C(=O)OCC(NC(=S)NCc1ccc(NS(C)(=O)=O)c(F)c1)c1ccc(C(C)(C)C)cc1 (stereo unspecified) | 35% | 213 | 244 | 72
11 | Cc1ccc(CC(CN/C(S)=N/Cc2ccc(NS(C)(=O)=O)cc2)COC(=O)C(C)(C)C)cc1C (stereo unspecified) | 15% |  |  | 
12 | CC(C)(C)C(=O)OCC(NC(=S)NCc1ccc(NS(C)(=O)=O)cc1)c1ccc(C(C)(C)C)cc1 (stereo unspecified) | 46% | 940 | 197 | 46
13 | CC(C)(C)C(=O)OCC(Cc1ccc(C(C)(C)C)cc1)NC(=S)NCc1ccc(NS(C)(=O)=O)c(F)c1 (stereo unspecified) | inactive | 179 | 115 | 
14 | CC(C)(C)C(=O)OCC(Cc1ccc(C(C)(C)C)cc1)NC(=S)NCc1ccc(NS(C)(=O)=O)cc1 (stereo unspecified) | 8% |  | 416 | 31
15 | Cc1ccc(CCC(COC(=O)C(C)(C)C)NC(=S)NCc2ccc(NS(C)(=O)=O)cc2)cc1C (stereo unspecified) | 5% | 33.7 | 390 | 
